According to ChEMBL document CHEMBL3797077, “Design and synthesis of N-(4-aminopyridin-2-yl)amides as B-Raf(V600E) inhibitors” (Bioorg Med Chem Lett, 2016):

Experiments:
HT-29 = assay: Cytotoxicity against human HT-29 cells harboring B-Raf V600E mutant assessed as growth inhibition after 72 hrs by MTT assay; type: functional, cell-based; conditions: HT-29, 72 h
[1] = Cytotoxicity against human HCT116 cells harboring wild type B-Raf assessed as growth inhibition after 72 hrs by MTT assay; type: functional, cell-based; conditions: HCT-116, 72 h
[2] = molecular target: Serine/threonine-protein kinase B-raf (Homo sapiens, UniProt P15056); assay: Inhibition of recombinant wild type full length human GST-tagged B-Raf expressed in baculovirus expression system using Z'-LYTE Ser/Thr3 peptide as substrate incubated for 1 hr by FRET-based Z'-LYTE assay
[3] = Cytotoxicity against human COLO205 cells harboring B-Raf V600E mutant assessed as growth inhibition after 72 hrs by MTT assay; type: functional, cell-based; conditions: COLO 205, 72 h
[4] = molecular target: Serine/threonine-protein kinase B-raf (Homo sapiens, UniProt P15056, V600E); assay: Inhibition of recombinant human N-terminal GST-tagged B-Raf V600E mutant expressed in baculovirus expression system using Z'-LYTE Ser/Thr3 peptide as substrate incubated for 1 hr by FRET-based Z'-LYTE assay
COLO 205 = assay: Selectivity ratio of IC50 for human HCT116 cells harboring wild type B-Raf to IC50 for human COLO205 cells harboring B-Raf V600E mutant; type: functional
HCT-116 = assay: Selectivity ratio of IC50 for human HCT116 cells harboring wild type B-Raf to IC50 for human HT-29 cells harboring B-Raf V600E mutant; type: functional

Serine/threonine-protein kinase B-raf (Homo sapiens, UniProt P15056, V600E), sequence (P15056 2-766 V600E limits assumed): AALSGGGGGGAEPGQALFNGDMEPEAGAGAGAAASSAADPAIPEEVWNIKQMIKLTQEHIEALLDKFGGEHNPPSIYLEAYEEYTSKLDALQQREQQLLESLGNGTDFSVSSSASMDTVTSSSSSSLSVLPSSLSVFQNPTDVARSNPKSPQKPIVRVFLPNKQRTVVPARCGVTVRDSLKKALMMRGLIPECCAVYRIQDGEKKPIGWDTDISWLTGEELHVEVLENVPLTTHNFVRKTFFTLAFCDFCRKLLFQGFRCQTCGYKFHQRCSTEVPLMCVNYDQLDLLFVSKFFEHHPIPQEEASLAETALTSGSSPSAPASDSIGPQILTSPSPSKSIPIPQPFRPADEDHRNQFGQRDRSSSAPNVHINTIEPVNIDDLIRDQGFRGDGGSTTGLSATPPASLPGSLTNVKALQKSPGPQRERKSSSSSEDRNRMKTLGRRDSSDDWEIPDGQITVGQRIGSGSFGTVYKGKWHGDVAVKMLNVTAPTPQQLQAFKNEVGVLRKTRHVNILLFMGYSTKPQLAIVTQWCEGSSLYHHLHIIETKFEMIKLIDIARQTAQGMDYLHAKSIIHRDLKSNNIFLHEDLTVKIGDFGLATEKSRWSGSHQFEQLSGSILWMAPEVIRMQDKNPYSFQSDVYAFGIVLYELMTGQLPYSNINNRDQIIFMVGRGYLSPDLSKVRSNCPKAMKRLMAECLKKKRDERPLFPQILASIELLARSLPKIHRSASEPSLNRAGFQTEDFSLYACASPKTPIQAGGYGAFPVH
Serine/threonine-protein kinase B-raf (Homo sapiens, UniProt P15056), sequence (P15056 whole entry): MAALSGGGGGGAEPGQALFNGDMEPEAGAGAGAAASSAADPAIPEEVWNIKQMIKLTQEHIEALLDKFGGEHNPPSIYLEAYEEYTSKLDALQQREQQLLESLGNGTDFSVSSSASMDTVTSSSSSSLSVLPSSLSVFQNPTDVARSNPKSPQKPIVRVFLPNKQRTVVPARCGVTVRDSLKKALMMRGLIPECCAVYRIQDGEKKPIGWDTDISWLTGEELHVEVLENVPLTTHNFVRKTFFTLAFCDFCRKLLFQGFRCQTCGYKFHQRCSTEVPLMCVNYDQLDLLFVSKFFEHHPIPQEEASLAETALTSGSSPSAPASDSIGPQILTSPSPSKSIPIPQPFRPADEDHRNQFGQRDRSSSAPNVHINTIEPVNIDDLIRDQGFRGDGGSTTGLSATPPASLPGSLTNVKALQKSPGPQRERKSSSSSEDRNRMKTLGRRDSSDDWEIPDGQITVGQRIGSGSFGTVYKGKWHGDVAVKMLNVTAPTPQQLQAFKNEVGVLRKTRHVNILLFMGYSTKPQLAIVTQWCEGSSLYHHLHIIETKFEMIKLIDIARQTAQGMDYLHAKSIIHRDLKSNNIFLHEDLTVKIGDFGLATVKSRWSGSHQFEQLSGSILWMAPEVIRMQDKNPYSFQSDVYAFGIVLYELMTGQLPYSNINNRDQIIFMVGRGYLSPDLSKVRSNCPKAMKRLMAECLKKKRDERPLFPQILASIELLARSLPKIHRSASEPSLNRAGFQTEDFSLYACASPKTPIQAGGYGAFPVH

| SMILES | IC50 (HT-29) [nM] | IC50 [1] [nM] | IC50 [2] [nM] | IC50 [3] [nM] | IC50 [4] [nM] | other results |
| --- | --- | --- | --- | --- | --- | --- |
| N#Cc1c(Oc2ccc(F)c(NC(=O)Cc3cccc(C(F)(F)F)c3)c2)ccc2nc(NC(=O)C3CC3)sc12 | 33 | 362 | 77 | 25 | – | – |
| CCC(=O)Nc1cc(Nc2cccc(NC(=O)c3cccc(C4CC4)c3)c2)ccn1 | – | – | – | – | 125 | – |
| O=C(Nc1cccc(Nc2ccnc(NC(=O)C3CCCCC3)c2)c1)c1cccc(C2CC2)c1 | – | – | – | – | 563 | – |
| CC(C)(C)c1cccc(C(=O)Nc2cccc(Nc3ccnc(NC(=O)C4CC4)c3)c2)c1 | 991 | 1380 | 240 | 787 | 20 | – |
| O=C(Nc1cccc(Nc2ccnc(NC(=O)C3CC3)c2)c1)c1cccc(Cl)c1 | – | – | – | – | 785 | – |
| O=C(Nc1cccc(Nc2ccnc(NC(=O)C3CC3)c2)c1)c1cccc([N+](=O)[O-])c1 | – | – | – | – | 1510 | – |
| CC(C)(C#N)c1cccc(C(=O)Nc2cccc(Nc3ccnc(NC(=O)C4CC4)c3)c2)c1 | 94 | 1090 | 476 | 136 | 38 | Ratio IC50 (COLO 205): 12; Ratio IC50 (HCT-116): 12 |
| O=C(Nc1cccc(Nc2ccnc(NC(=O)C3CC3)c2)c1)c1ccc(C(F)(F)F)cc1 | – | – | – | – | > 10000 | – |
| O=C(Nc1cccc(Nc2ccnc(NC(=O)C3CC3)c2)c1)c1cccc(C2CC2)c1 | 92 | 221 | 453 | 111 | 35 | – |
| CCc1cccc(C(=O)Nc2cccc(Nc3ccnc(NC(=O)C4CC4)c3)c2)c1 | – | – | – | – | 110 | – |
| O=C(Nc1cccc(Nc2ccnc(NC(=O)C3CCC3)c2)c1)c1cccc(C2CC2)c1 | – | – | – | – | 182 | – |
| N#Cc1cccc(C(=O)Nc2cccc(Nc3ccnc(NC(=O)C4CC4)c3)c2)c1 | – | – | – | – | 3530 | – |
| O=C(Nc1cccc(Nc2ccnc(NC(=O)C3CC3)c2)c1)c1cccc(C(F)(F)F)c1 | – | – | – | – | 141 | – |
| O=C(Nc1cccc(Nc2ccnc(NC(=O)C3CC3)c2)c1)c1ccccc1C(F)(F)F | – | – | – | – | > 10000 | – |
| CC(C)(C)C(=O)Nc1cc(Nc2cccc(NC(=O)c3cccc(C4CC4)c3)c2)ccn1 | – | – | – | – | 1030 | – |
| CC(=O)Nc1cc(Nc2cccc(NC(=O)c3cccc(C4CC4)c3)c2)ccn1 | 236 | 367 | 1200 | 131 | 50 | – |
| CC(C)c1cccc(C(=O)Nc2cccc(Nc3ccnc(NC(=O)C4CC4)c3)c2)c1 | 462 | 1060 | 148 | 444 | 13 | – |
| N#CC1(c2cccc(C(=O)Nc3cccc(Nc4ccnc(NC(=O)C5CC5)c4)c3)c2)CC1 | 791 | 1350 | 2030 | 725 | 79 | – |
| CC(C)C(=O)Nc1cc(Nc2cccc(NC(=O)c3cccc(C4CC4)c3)c2)ccn1 | – | – | – | – | 420 | – |
| Cc1cccc(C(=O)Nc2cccc(Nc3ccnc(NC(=O)C4CC4)c3)c2)c1 | – | – | – | – | 1210 | – |
| O=C(Nc1cccc(Nc2ccnc(NC(=O)C3CCCC3)c2)c1)c1cccc(C2CC2)c1 | – | – | – | – | 434 | – |
| CCCS(=O)(=O)Nc1ccc(F)c(C(=O)c2c[nH]c3ncc(-c4ccc(Cl)cc4)cc23)c1F [VEMURAFENIB] | 156 | 14600 | – | 44 | – | – |
